Active and inactive are the calls of the source. The rule behind the calls is not given here.
Tested on: CCRIS mutagenicity, Ames/micronucleus/aberration tests
Test: CCRIS mutagenicity studies
[1] = Test System: AMES SALMONELLA TYPHIMURIUM, Strain/Indicator: TA100, Metabolic Activation: NONE, Method: PREINCUBATION
[2] = Test System: AMES SALMONELLA TYPHIMURIUM, Strain/Indicator: TA1535, Metabolic Activation: NONE, Method: PREINCUBATION
[3] = Test System: AMES SALMONELLA TYPHIMURIUM, Strain/Indicator: TA1537, Metabolic Activation: NONE, Method: PREINCUBATION
[4] = Test System: AMES SALMONELLA TYPHIMURIUM, Strain/Indicator: TA98, Metabolic Activation: NONE, Method: PREINCUBATION

## C=C1C[C@@]23CC[C@H]4[C@@](C)(CCC[C@@]4(C)C(=O)O)[C@@H]2CC[C@]1(O[C@@H]1O[C@H](CO)[C@@H](O)[C@H](O)[C@H]1O[C@@H]1O[C@H](CO)[C@@H](O)[C@H](O)[C@H]1O)C3
Test System: AMES SALMONELLA TYPHIMURIUM, Strain/Indicator: TM677, Metabolic Activation: RAT, LIVER, S-9, AROCLOR 1254, Method: PREINCUBATION
  mutagenic call: inactive; negative

## CCCCCOC(=O)NO
Test System: E. COLI, Strain/Indicator: WP2 UVRA, Metabolic Activation: NONE, Method: FLUCTUATION TEST
  mutagenic call: active; positive

## O=c1c(O)c(-c2ccccc2)oc2cc(O)cc(O)c12
[1]
  mutagenic call: inactive; negative
Test System: AMES SALMONELLA TYPHIMURIUM, Strain/Indicator: TA100, Metabolic Activation: RAT LIVER S-9, AROCLOR 1254, Method: PREINCUBATION
  mutagenic call: inactive; negative

## Nc1ccccc1S
End Point: In vitro chromosomal aberrations, Test System: Chinese hamster lung (CHL/IU) cells, Metabolic Activation: Rat, Liver, S9, Phenobarbital and 5,6-benzoflavone
  mutagenic call: active; positive (structural changes and ploidy).
Test System: AMES SALMONELLA TYPHIMURIUM, Strain/Indicator: TA98, Metabolic Activation: RAT, LIVER, S-9, PHENOBARBITAL AND BETA-NAPHTHOFLAVONE, Method: PREINCUBATION
  mutagenic call: inactive; negative
[1]
  mutagenic call: inactive; negative
Test System: AMES SALMONELLA TYPHIMURIUM, Strain/Indicator: TA100, Metabolic Activation: RAT, LIVER, S-9, PHENOBARBITAL AND BETA-NAPHTHOFLAVONE, Method: PREINCUBATION
  mutagenic call: inactive; negative
[2]
  mutagenic call: inactive; negative
Test System: AMES SALMONELLA TYPHIMURIUM, Strain/Indicator: TA1535, Metabolic Activation: RAT, LIVER, S-9, PHENOBARBITAL AND BETA-NAPHTHOFLAVONE, Method: PREINCUBATION
  mutagenic call: inactive; negative
[3]
  mutagenic call: inactive; negative
Test System: AMES SALMONELLA TYPHIMURIUM, Strain/Indicator: TA1537, Metabolic Activation: RAT, LIVER, S-9, PHENOBARBITAL AND BETA-NAPHTHOFLAVONE, Method: PREINCUBATION
  mutagenic call: inactive; negative
Test System: AMES SALMONELLA TYPHIMURIUM, Strain/Indicator: TA1537, Metabolic Activation: RAT, LIVER, S-9, SODIUM PHENOBARBITAL AND 5,6-BENZOFLAVONE, Method: PREINCUBATION
  mutagenic call: inactive; negative
Test System: E. COLI, Strain/Indicator: WP2UVRA, Metabolic Activation: NONE, Method: PREINCUBATION
  mutagenic call: inactive; negative
Test System: E. COLI, Strain/Indicator: WP2UVRA, Metabolic Activation: RAT, LIVER, S-9, PHENOBARBITAL AND BETA-NAPHTHOFLAVONE, Method: PREINCUBATION
  mutagenic call: inactive; negative

## Oc1ccc(Cl)cc1Cc1ccccc1
Test System: AMES SALMONELLA TYPHIMURIUM, Strain/Indicator: TA98, Metabolic Activation: HAMSTER, LIVER, S-9, AROCLOR 1254 (10%), Method: PREINCUBATION
  mutagenic call: inactive; negative
[4]
  mutagenic call: inactive; negative
Test System: AMES SALMONELLA TYPHIMURIUM, Strain/Indicator: TA98, Metabolic Activation: RAT, LIVER, S-9, AROCLOR 1254 (10%), Method: PREINCUBATION
  mutagenic call: inactive; negative
Test System: AMES SALMONELLA TYPHIMURIUM, Strain/Indicator: TA100, Metabolic Activation: HAMSTER, LIVER, S-9, AROCLOR 1254 (10%), Method: PREINCUBATION
  mutagenic call: inactive; negative
[1]
  mutagenic call: inactive; negative
Test System: AMES SALMONELLA TYPHIMURIUM, Strain/Indicator: TA100, Metabolic Activation: RAT, LIVER, S-9, AROCLOR 1254 (10%), Method: PREINCUBATION
  mutagenic call: inactive; negative
Test System: AMES SALMONELLA TYPHIMURIUM, Strain/Indicator: TA1535, Metabolic Activation: HAMSTER, LIVER, S-9, AROCLOR 1254 (10%), Method: PREINCUBATION
  mutagenic call: inactive; negative
[2]
  mutagenic call: inactive; negative
Test System: AMES SALMONELLA TYPHIMURIUM, Strain/Indicator: TA1535, Metabolic Activation: RAT, LIVER, S-9, AROCLOR 1254 (10%), Method: PREINCUBATION
  mutagenic call: inactive; negative
Test System: AMES SALMONELLA TYPHIMURIUM, Strain/Indicator: TA1537, Metabolic Activation: HAMSTER, LIVER, S-9, AROCLOR 1254 (10%), Method: PREINCUBATION
  mutagenic call: inactive; negative
[3]
  mutagenic call: inactive; negative
Test System: AMES SALMONELLA TYPHIMURIUM, Strain/Indicator: TA1537, Metabolic Activation: RAT, LIVER, S-9, AROCLOR 1254 (10%), Method: PREINCUBATION
  mutagenic call: inactive; negative

## CCC(C)c1ccccc1OC(=O)N(C)N=O (stereo not given)
Test System: E. COLI WP2, Strain/Indicator: WP2, Metabolic Activation: NONE, Method: STANDARD PLATE
  mutagenic call: active; positive

## Nc1cc2c3c(ccc2c2ccccc12)[C@H](O)[C@@H](O)C=C3
[4]
  mutagenic call: inactive; negative
Test System: AMES SALMONELLA TYPHIMURIUM, Strain/Indicator: TA98, Metabolic Activation: RAT, LIVER, S-9, AROCLOR 1254, Method: PREINCUBATION
  mutagenic call: inactive; negative
[1]
  mutagenic call: active; positive
Test System: AMES SALMONELLA TYPHIMURIUM, Strain/Indicator: TA100, Metabolic Activation: RAT, LIVER, S-9, AROCLOR 1254, Method: PREINCUBATION
  mutagenic call: active; positive
Test System: CHINESE HAMSTER OVARY, Strain/Indicator: CHO-K1-BH4 (HGPRT)/6-THIOGUANINE, Metabolic Activation: NONE, Method: STANDARD PLATE
  mutagenic call: inactive; negative
Test System: CHINESE HAMSTER OVARY, Strain/Indicator: CHO-K1-BH4 (HGPRT)/6-THIOGUANINE, Metabolic Activation: RAT, LIVER, S-9, AROCLOR 1254, Method: STANDARD PLATE
  mutagenic call: active; positive
Test System: CHINESE HAMSTER OVARY, Strain/Indicator: CHO-UV5 (HGPRT)/6-THIOGUANINE, Metabolic Activation: NONE, Method: STANDARD PLATE
  mutagenic call: inactive; negative
Test System: CHINESE HAMSTER OVARY, Strain/Indicator: CHO-UV5 (HGPRT)/6-THIOGUANINE, Metabolic Activation: RAT, LIVER, S-9, AROCLOR 1254, Method: STANDARD PLATE
  mutagenic call: active; positive

## C[C@]1(O)CC[C@H]2[C@@H]3CCC4=CC(=O)CC[C@]4(C)[C@@]3(F)[C@@H](O)C[C@@]21C
End Point: IN VITRO CHROMOSOMAL ABERRATIONS, Test System: HUMAN PERIPHERAL LYMPHOCYTES, Metabolic Activation: NONE
  mutagenic call: active; positive after 72 hr treatment at 2 lower doses; positive after 48 or 72 hr trea
End Point: IN VIVO MICRONUCLEUS, Test System: BONE MARROW POLYCHROMATIC ERYTHROCYTES, Species: MOUSE, Strain/Sex: SWISS ALBINO/MALE, Route: IP
  mutagenic call: active; positive
Test System: AMES SALMONELLA TYPHIMURIUM, Strain/Indicator: TA97A, Metabolic Activation: NONE, Method: STANDARD PLATE
  mutagenic call: inactive; negative; growth inhibition at highest dose
Test System: AMES SALMONELLA TYPHIMURIUM, Strain/Indicator: TA97A, Metabolic Activation: RAT, LIVER, S-9, PHENOBARBITAL, Method: PREINCUBATION
  mutagenic call: inactive; negative
Test System: AMES SALMONELLA TYPHIMURIUM, Strain/Indicator: TA98, Metabolic Activation: NONE, Method: STANDARD PLATE
  mutagenic call: inactive; negative; growth inhibition at highest dose
Test System: AMES SALMONELLA TYPHIMURIUM, Strain/Indicator: TA98, Metabolic Activation: RAT, LIVER, S-9, PHENOBARBITAL, Method: PREINCUBATION
  mutagenic call: inactive; negative
Test System: AMES SALMONELLA TYPHIMURIUM, Strain/Indicator: TA100, Metabolic Activation: NONE, Method: STANDARD PLATE
  mutagenic call: inactive; negative; growth inhibition at highest dose
Test System: AMES SALMONELLA TYPHIMURIUM, Strain/Indicator: TA100, Metabolic Activation: RAT, LIVER, S-9, PHENOBARBITAL, Method: PREINCUBATION
  mutagenic call: inactive; negative
Test System: AMES SALMONELLA TYPHIMURIUM, Strain/Indicator: TA102, Metabolic Activation: NONE, Method: STANDARD PLATE
  mutagenic call: inactive; negative; growth inhibition at highest dose
Test System: AMES SALMONELLA TYPHIMURIUM, Strain/Indicator: TA102, Metabolic Activation: RAT, LIVER, S-9, PHENOBARBITAL, Method: PREINCUBATION
  mutagenic call: inactive; negative
Test System: AMES SALMONELLA TYPHIMURIUM, Strain/Indicator: TA1535, Metabolic Activation: NONE, Method: STANDARD PLATE
  mutagenic call: inactive; negative; growth inhibition at highest dose
Test System: AMES SALMONELLA TYPHIMURIUM, Strain/Indicator: TA1535, Metabolic Activation: RAT, LIVER, S-9, PHENOBARBITAL, Method: PREINCUBATION
  mutagenic call: inactive; negative

## N[C@@H](CCS/C(Cl)=C/Cl)C(=O)O
Test System: AMES SALMONELLA TYPHIMURIUM, Strain/Indicator: TA2638, Metabolic Activation: NONE, Method: PREINCUBATION
  mutagenic call: inactive; negative
Test System: AMES SALMONELLA TYPHIMURIUM, Strain/Indicator: TA2638, Metabolic Activation: RAT, KIDNEY, CYTOSOL, Method: PREINCUBATION
  mutagenic call: active; positive

From PubChem BioAssay AID1259407 (Chemical Carcinogenesis Research Information System (CCRIS), 2018)
